Entries after “also recorded” stand apart in the source; their conditions may differ.
Test system: bacteria
Experiment: Binding of targeting peptides to microorganisms (Table 3)
Details: preferably 1x PBS
[1] = peptide binding in aqueous buffers varied by peptide solubility
[2] = microorganism bound by the targeting peptide, binding in aqueous buffers chosen by peptide solubility
[3] = peptide binding in aqueous buffers that varied depending on peptide solubility
[4] = microorganism the targeting peptide binds, binding in aqueous buffers that varied with peptide solubility

1T-38 (VMFVLTRGRSPRPMIPAY; Peptide with targeting and/or antimicrobial activity) [Peptide 1T-38]
Target(s) (microorganism bound by the targeting peptide) [1]: S. mutans; also recorded: S. aereus; also recorded: S. epidermidis; also recorded: C. jeikeium; also recorded: C. xerosis; also recorded: C. striatum; also recorded: P. aeruginosa

1T-21 (YVEEAVRAALKKEARISTEDTPVNLPSFDC; Peptide with targeting and/or antimicrobial activity) [Peptide 1T-21]
Target(s) (microorganism bound by the targeting peptide) [1]: S. mutans; also recorded: P. aeruginosa

PF-247 (ETAASETH; Peptide with targeting and/or antimicrobial activity)
Target(s) [2]: S. epidermidis

1T-72 (EPTDGVACKER; Peptide with targeting and/or antimicrobial activity) [Peptide 1T-72]
Target(s) (microorganism bound by the targeting peptide) [1]: P. aeruginosa

PF-372 (KKQDKRIEDKYKRMKKGD; Peptide with targeting and/or antimicrobial activity)
Target(s) [2]: C. jeikeium; also recorded: C. jejuni

PF-131 (RRAAARTKGNRR; Peptide with targeting and/or antimicrobial activity)
Target(s) [2]: S. epidermidis and E. coli and MRSA and C. jeikeium

PF-779 (IYGDFFNFYLCDISLKVNGLQPGGPVRTVKLFGQPTGRCTPQ; Peptide with targeting and/or antimicrobial activity)
Target(s) (microorganism bound by the targeting peptide) [3]: Mycobacteria spp.

1T-237 (EDPVPNHFTLRRNKKEKPSKS; Peptide with targeting and/or antimicrobial activity) [Peptide 1T-237]
Target(s) [4]: S. sanguinis

PF-505 (GYTKDPGTGI; Peptide with targeting and/or antimicrobial activity)
Target(s) (microorganisms bound by the targeting peptide) [3]: S. mutans

PF-177 (VTSEPGIAHDIRLLPRAAAFR; Peptide with targeting and/or antimicrobial activity)
Target(s) [2]: M. luteus and MRSA and E. faecalis and C. jeikeium

PF-104 (ERTAVNDLWI; Peptide with targeting and/or antimicrobial activity)
Target(s) [2]: MRSA and C. jeikeium

PF-703 (MTTVDNIVGLVIAVALMAFLFAALLFPEKF; Peptide with targeting and/or antimicrobial activity)
Target(s) (microorganism bound by the targeting peptide) [3]: Mycobacteria spp

PF-773 (TLKESK; Peptide with targeting and/or antimicrobial activity)
Target(s) (microorganism bound by the targeting peptide) [3]: S. epidermidis; also recorded: C. albicans; also recorded: C. jeikeium

1T-272 (QLAPIDKQLKAVKKIAFYESESTAAKAVTVA; Peptide with targeting and/or antimicrobial activity) [Peptide 1T-272]
Target(s) [4]: F. nucleatum; also recorded: S. mutans; also recorded: S. oralis; also recorded: S. sanguinis

PF-488 (YPNEQGHHKNNLKNIIIE; Peptide with targeting and/or antimicrobial activity)
Target(s) (microorganisms bound by the targeting peptide) [3]: S. mutans; also recorded: E. coli

1T-215 (VCFKDISVFLSPFRGQEVLFCGKAKHSLIYVIGT; Peptide with targeting and/or antimicrobial activity) [Peptide 1T-215]
Target(s) [4]: S. sanguinis

PF-707 (IDPESIVTTNNKQDNVDEQ; Peptide with targeting and/or antimicrobial activity)
Target(s) (microorganism bound by the targeting peptide) [3]: S. mutans; also recorded: E. coli

PF-183 (KPGISVENRQ; Peptide with targeting and/or antimicrobial activity)
Target(s) [2]: S. epidermidis and M. luteus and E. coli and C. albicans and MRSA and E. faecalis and C. jeikeium

PF-641 (SWKCHHLAIGGSWKCHHLAI; Peptide with targeting and/or antimicrobial activity)
Target(s) (microorganism bound by the targeting peptide) [3]: S. epidermidis and M. luteus and E. coli and C. albicans and MRSA and E. faecalis and C. jeikeium and C. jejuni

PF-792 (ALHASGIQAI; Peptide with targeting and/or antimicrobial activity)
Target(s) (microorganism bound by the targeting peptide) [3]: S. mutans

1T-13 (FRSPCINNNSLQPPGVYPAR; Peptide with targeting and/or antimicrobial activity) [Peptide 1T-13]
Target(s) (microorganism bound by the targeting peptide) [1]: S. aureus; also recorded: S. epidermidis; also recorded: P. aeruginosa

1T-17 (NNAIVYIS; Peptide with targeting and/or antimicrobial activity) [Peptide 1T-17]
Target(s) (microorganism bound by the targeting peptide) [1]: S. mutans

PF-S029 (TSDTQSQSPWLFDNADIVNIYPVQLMHSSDND; Peptide with targeting and/or antimicrobial activity)
Target(s) (microorganism bound by the targeting peptide) [3]: M. luteus; also recorded: P. mirabilis; also recorded: E. coli; also recorded: C. albicans; also recorded: C. jeikeium; also recorded: C. jejuni

PF-503 (VVTLKDIVAVIEDQGYDVQ; Peptide with targeting and/or antimicrobial activity)
Target(s) (microorganisms bound by the targeting peptide) [3]: S. mutans

PF-193 (PPHCPPGHAKKGWC; Peptide with targeting and/or antimicrobial activity)
Target(s) [2]: S. epidermidis and M. luteus and E. coli and MRSA and E. faecalis and C. jejuni

PF-055 (GHVFNGNNKRNL; Peptide with targeting and/or antimicrobial activity)
Target(s) [4]: S. mutans

PF-783 (FTSEVRGVFTYRVNKAGLITNMRGYWNLDMMTFGNQE; Peptide with targeting and/or antimicrobial activity)
Target(s) (microorganism bound by the targeting peptide) [3]: Mycobacteria spp.

PF-359 (MTVMEDPGSEQRNKIQSPMKGEDFSALFGR; Peptide with targeting and/or antimicrobial activity)
Target(s) [2]: S. epidermidis and B. fragilis and P. aeruginosa and C. albicans and MRSA and E. faecalis and C. jeikeium

PF-487 (MYKAIAVLAMTIMAFFIFVYPFFIVGLILG; Peptide with targeting and/or antimicrobial activity)
Target(s) (microorganisms bound by the targeting peptide) [3]: S. mutans; also recorded: E. coli

1T-192 (ILVLLALQVELDSKFQY; Peptide with targeting and/or antimicrobial activity) [Peptide 1T-192]
Target(s) [4]: S. sanguinis

PF-711 (KTAGPTGTIYKTN; Peptide with targeting and/or antimicrobial activity)
Target(s) (microorganism bound by the targeting peptide) [3]: S. mutans

PF-325 (LTIDEKLRNHR; Peptide with targeting and/or antimicrobial activity)
Target(s) [2]: S. mutans; also recorded: E. coli

1T-27 (ALFVSLEQFLVVVAKSVFALCHSGTLS; Peptide with targeting and/or antimicrobial activity) [Peptide 1T-27]
Target(s) (microorganism bound by the targeting peptide) [1]: S. mutans; also recorded: S. aureus; also recorded: S. epidermidis; also recorded: C. jeikeium; also recorded: C. xerosis; also recorded: C. striatum; also recorded: P. aeruginosa

PF-795 (ALHKSGIQVIADWVPDQIYN; Peptide with targeting and/or antimicrobial activity)
Target(s) (microorganism bound by the targeting peptide) [3]: S. mutans

PF-039 (MLEEKNKSL; Peptide with targeting and/or antimicrobial activity)
Target(s) [4]: P. mirabilis; also recorded: C. jeikeium

From patent publication US9597407B2, “Targeted antimicrobial moieties” (C3 Jian, Inc., priority 2009, dated 2017)
